Measurements taken from paper PMC11375702, “Early Preclinical Studies of Ergosterol Peroxide and Biological Evaluation of Its Derivatives” (ACS Omega, 2024).
Converted amounts (≈) assume the structure as drawn. Read-outs that look alike come from different tables or passages of the source.

Assays:
[1] = Aqueous solubility by UV/vis absorbance; assay type: physicochemical; conditions: kinetic from dmso stock
Excerpt: (§1) First, topological polar surface area (tPSA), a widely used molecular descriptor that provides insight into compound absorption and membrane penetration, was theoretically calculated for these compounds along with the estimated c log P (partition coefficient) or log P to further assess their global therapeutic potential.[18],[19] Lipophilicity, a measurable and predictable physical property, can provide practical guidance in designing compounds with improved molecular properties.[20] The tPSA sums the contribution of the surface area of polar atoms, enabling us to determine whether the compounds are more likely to be cell membrane permeable. The aqueous solubility was measured by ultraviolet/visible (UV/vis) spectroscopy.[21] […] EP shares an improved cLogP, but still relatively high from a desirable drug candidate (2.5–3.5). […] Compound 4 has a higher c log P, while compounds 5–10 have lower c log P values. To determine LiPE (lipophilicity efficiency), the following formula was used: LiPE = pIC50 – log P, according to established methods.[22],[23] […] The obtained EC50 values for the newly generated EP derivatives were within a similar range for other derivatives previously described against TNBC models.[17]
Briefly, clear 96-well PS plates with lids (catalog no. 3903, Corning, Glendale, Arizona) were used for spectrophotometric determination of absorbance with a CLARIOstar Plus plate reader (BMG LabTech, Ortenberg, Germany) to determine at which concentration the compounds are precipitating out of solution. Decrease in transmittance of 2% or higher was considered significant. Compound solutions of 10 mM in DMSO were prepared followed by a serial dilution series, which were vortexed to ensure the solutions were homogeneous. The 96-well plate was then prepared with distilled H2O and allowed to equilibrate for 1.5 h. Then, the plate was placed in a CLARIOstar Plus plate reader or Cytation C10 (Biotek, Agilent) and set to detect absorbance at 220–700 nm. Each well was read individually. Three replicate assays were conducted for each experimental condition, and a minimum of three independent experiments were conducted.

[2] = test system: MDA-MB-231; test: CellTiter-Glo 72 h cytotoxicity assay, MDA-MB-231; assay type: cell-based; conditions: Homo sapiens, CTG assay, read-out: MDA-MB231 (EC50)
Method: (§2) The following stable human cell lines were utilized for this study: SUM149 and MDA-MB-231 (breast cancer models) and BJ (human normal fibroblast, foreskin). Cells were purchased from BioIVT or the American Type Culture Collection (ATCC). Cells were cultured in F-12-Nutrient Mixture (SUM149), DMEM (MDA-MB-231), or EMEM (BJ) medium supplemented with 10% fetal bovine serum (Sigma-Aldrich, St. Louis, MO) and 2 mmol of L-glutamine, at 37 °C in a humidified 5% CO2 atmosphere (no antibiotics) as indicated by the manufacturer. Cell cultures were grown to 80–90% confluence before use, except where otherwise specified. Our cell lines are authenticated every 3 months using the CellCheck service (Idexx BioResearch, Westbrook, ME). Cells were tested for mycoplasma prior to use (MycoAlert detection Kit Lonza LT07–318) and discarded if they tested positive. A cell proliferation assay was performed using the CellTiter-Glo (Promega Corp., Madison, WI) luminescent cell viability assay kit. Cells were detached with trypsin, counted, and seeded in white polystyrene flat-bottom sterile 96-well tissue culture-treated plates (catalog no. 3917, Corning, Glendale, Arizona) and incubated overnight at 37 °C. MDA-MB231, SUM149, and BJ cells were seeded into 96-well plates at concentrations experimentally determined (0.4 × 10^4, 0.25 × 10^4, and 0.3 × 10^4 cells per well, respectively) to ensure logarithmic growth during the duration of the experiment and to prevent adverse effects on cell growth by DMSO exposure. The plates were incubated for 12 h before treatment. Stock solutions of test compounds (10 mM in DMSO) in nine 3-fold serial dilutions were dispensed. The final concentration of DMSO was 0.3% (v/v) in each well. The positive control used was staurosporine (10 μM) as the kill-all control, and the negative control used is DMSO as we have published. Staurosporine is a potent alkaloid inducer of various cell death modalities but primarily apoptosis, making it a reliable positive control for viability assays. The plates were incubated for 72 h and then quenched with CTG at 50 μL per well at RT. Plates were then incubated at RT for 20 min and centrifuged at 1000 rpm for 1 min. Luminescence was read on a CLARIOstar Plus plate reader (BMG LabTech, Ortenberg, Germany).
(§3) Three or four technical replicates were conducted for each experimental condition, and a minimum of three independent experiments were conducted for each assay. In vitro ADME values were expressed as mean ± standard deviation (SD) of at least three independent experiments. One-way analysis of variance (ANOVA) was adopted for comparisons among groups using the GraphPad Prism 10.2.3 (GraphPad Software, San Diego, CA). A difference of P < 0.05 was considered as statistically significant. Data are expressed as mean ± SEM. For CTG, the mean luminescence of each experimental treatment group was normalized as a percentage of the mean intensity of untreated controls (DMSO as vehicle). EC50 values were calculated from dose–response curve fitting via nonlinear regression using GraphPad Prism 10.2.3 (GraphPad Software, San Diego, CA). A therapeutic index (TI) between normal and tumor cell lines can be determined (EC50 non-neoplastic cell line BJ)/(EC50 cancer cell line). In vivo studies were analyzed using mixed-effects regression models to compare the changes in tumor volume over time by treatment group. Tumor volume reduction was compared using ANOVA with repeated measures, and all data was considered significant when P < 0.05.

[3] = test system: SUM149; test: CellTiter-Glo 72 h cytotoxicity assay, SUM149; assay type: cell-based; conditions: Homo sapiens; for EC50: SUM149, CTG assay, 72 h; for IC50: calculated from SUM149 EC50
Excerpt: as §1, §2
Three or four technical replicates were conducted for each experimental condition, and a minimum of three independent experiments were conducted for each assay. In vitro ADME values were expressed as mean ± standard deviation (SD) of at least three independent experiments. One-way analysis of variance (ANOVA) was adopted for comparisons among groups using the GraphPad Prism 10.2.3 (GraphPad Software, San Diego, CA). A difference of P < 0.05 was considered as statistically significant. […]

[4] = test system: BJ; test: CellTiter-Glo 72 h cytotoxicity assay, BJ normal fibroblasts; assay type: cell-based; conditions: Homo sapiens, CTG assay, noncancerous fibroblasts
Method: as §2, §3

[5] = Plasma stability assay (human)
[6] = Plasma stability assay (mouse); conditions: male, Balb/c, mouse, plasma
Method: (§5) Briefly, pooled blood from 3 animals for experiment (male Balb/c 6–8w from the division of laboratory animal medicine in-house breeding colony) was collected, and the heparinized plasma was prepared. Plasma and test compounds were added to individual wells of a 96-well microtiter plate. Compounds were incubated at 37 °C for the provided time points. All tests were performed in triplicates. The test compound was incubated with plasma at six different time points. The reaction was terminated by methanol containing an internal standard. After centrifugation, the concentration of the test compound in the supernatant was quantified by LC-MS/MS.
(§6) Plasma stability assay: Briefly, pooled blood from 3 animals for experiment (male Balb/c 6-8w
(§7) from the division of laboratory animal medicine in-house breeding colony) was collected, and
(§8) the heparinized plasma was prepared. Plasma and test compounds were added to the individual
(§9) wells of a 96-well microtiter plate. Compounds were incubated at 37°C for the provided time
(§10) points. All tests were performed in triplicates. Then, the test compound was incubated with
(§11) plasma at six different time points. The reaction was terminated by the addition of methanol
(§12) containing an internal standard. After centrifugation, the concentration of the test compound in
(§13) the supernatant was quantified by LC-MS/MS. The percentage of test compound remaining at
(§14) compounds are known to be metabolized by plasma esterases,1 and were also incubated with
each batch of test compound.
(§15) A standard protocol and MS method was used for the plasma stability experiment. The extraction
(§16) procedure for plasma/tissue samples and the spiked plasma/tissue calibration standards were
(§17) identical: A 25 µL of study sample or spiked plasma/tissue calibration standard was added to
(§18) individual pre-labeled micro-centrifuge tubes followed by 100 µL of internal standard prepared
(§19) in Acetonitrile (Albendazole, 500 ng/mL) was added except for blank, where 100 µL of
(§20) Acetonitrile was added. Samples were vortexed for 5 minutes. Samples were centrifuged for 5
(§21) minutes at a speed of 4000 rpm at 4°C. Following centrifugation, 100 µL of clear supernatant
(§22) was transferred in 96 well plates and analyzed using LC-MS/MS mode. The LC system
(§23) comprises of a binary pump that can mix two mobile phases: A = Water+0.1% formic acid; B =
(§24) acetonitrile +0.1%formic acid. The system was operated in gradient mode using a 6 minute
(§25) min, 10-90% A to B in 5.5-6 min, and then hold at this gradient, using a Phenomenex Luna, 150
(§26) X 4.6 mm, 5 µm column. Source Parameter: positive, Ion Spray Voltage 5500, Temperature
550C, interface heater on.

[7] = Simulated gastric fluid (SGF) stability; assay type: in vitro ADME; conditions: simulated gi fluid; simulated gastric fluid; read-out: SGF stability t1/2 (converted)
Method: The simulated gastric fluid (SGF) assay is an important element in determining the overall drug-like potential of compounds.[29],[30] Anecdotal studies of oral consumption of extracts by humans indicate positive outcomes of digestion of mixtures of EP and its related natural products found in G. lucidum.[2] […] Chlorambucil was used as positive control as previously described.[32],[33] […] Caco-2 permeability studies were conducted to validate and to provide information on EP’s ability to cross the intestinal barrier and its potential for interactions with drug transporters.[36]−[39] The rate of transport in both directions (A-B and B-A) across the cell monolayer enables an efflux ratio (B-A/A-B) to be determined, enabling us to determine if a compound undergoes active efflux (efflux ratio ≥2).

[8] = Caco-2 permeability assay; assay type: in vitro ADME; conditions: human
Method: It was performed in the 96-well Transwell system with a modified method.[36] Caco-2 cells were maintained at 37 °C in a humidified incubator with an atmosphere of 5% CO2. The cells were cultured in MEM containing 20% FBS in […], 100 units/mL penicillin, and 100 μg/mL of streptomycin. The Caco-2 cells were seeded onto inserts of a 96-well plate at a density of 0.5 × 10^5 cells/insert and cultured in the MEM containing 20% FBS for 7 days. Each cultured monolayer on the 96-well plate was washed twice with HBSS/HEPES (10 mM, pH 7.4). The permeability assay was initiated by the addition of each compound solution (10 μmol/L) into inserts (apical side, A) or receivers (basolateral side, B). The Caco-2 cell monolayers were incubated for 2 h at 37 °C. Fractions were collected from receivers (if apical to basal permeability) or inserts (if basal to apical permeability), and concentrations were assessed by UPLC/MS (Waters; Milford, MA). All compounds were tested in triplicates. The A → B (or B → A) apparent permeability coefficients ([…]) of each compound were calculated using the equation Pappa = dQ/dt × 1/AC0. The flux of a drug across the monolayer is dQ/dt (μmol/s). The initial drug concentration on the apical side is C0 (μmol/L). The surface area of the monolayer is A (cm^2).

[9] = Plasma protein binding, rapid equilibrium dialysis (mouse); assay type: in vitro ADME
Method: (§4) This assay determines the plasma protein binding of a drug or compound and free drug concentration in plasma using rapid equilibrium dialysis. We use the Single-Use RED (rapid equilibrium dialysis, Thermo Scientific) devices to allow the aqueous component of plasma containing the free drug/compound through a dialysis membrane (MWCO ∼ 8000). Sample quantification is determined using a Waters ACQUITY-SOQ UPLC-MS-ELDS-UV system.

[10] = Plasma protein binding, rapid equilibrium dialysis (human); assay type: in vitro ADME
Method: as §4

[11] = in vitro; conditions: human, plasma
[12] = in vitro; conditions: male, Balb/c, mouse, plasma
Method: as §5, §6, §7, §8, §9, §10, §11, §12, §13, §14
each batch of test compound.
as §15, §16, §17, §18, §19, §20, §21, §22, §23, §24, §25, §26
550C, interface heater on.

[13] = Metabolic stability in mouse liver microsomes; assay type: in vitro ADME
Method: (§27) Human and/or mouse microsomal degradation was determined using multiple time points to monitor the rate of disappearance of the parent compound during incubation following the method described by Di et al.[51],[52] […] The metabolic stability was evaluated via the half-life from the least-squares fit of the multiple time points based on first-order kinetics. Waters ACQUITY-TOQ UPLC-MS-MS-UV system was used to analyze the samples as established in various MS core facilities.[51],[52]

[14] = Metabolic stability in human liver microsomes; assay type: in vitro ADME
Method: as §27

Row | SMILES | solubility at […] ([1]; water) [µg/mL] | EC50 [2] [µM] | EC50 [3] [µM] | IC50 [3] [µM] | EC50 [4] [µM] | also measured
1 | CC(C)[C@@H](C)C(O)C(O)[C@@H](C)[C@H]1CC[C@@H]2[C@]1(C)CC[C@H]1[C@@]23OO[C@@]2(C[C@@H](O)CC[C@]12C)C(O)C3O (stereo partly shown) [Compound 8] | 24.8 (≈ 50 µM) | 29.7 | 6.42 | 6.46 | 172 | 
2 | CC(C)[C@@H](C)/C=C/[C@@H](C)[C@H]1CC[C@@H]2[C@]1(C)CC[C@H]1[C@@]23OO[C@@]2(C[C@@H](O)CC[C@]12C)C(O)C3O (stereo partly shown) [Compound 6] | 23.1 (≈ 50 µM) | 25.4 | 14.5 | 14.8 | 135 | 
3 | CC1CC(OC(=O)C(O)c2ccccc2)CC(C)(C)N1C (stereo not shown) [eucatropine, reference compound] |  |  |  |  |  | half-life [5]: 0.41 h; half-life [6]: 1.87 h
4 | O=C(O)CCCc1ccc(N(CCCl)CCCl)cc1 [chlorambucil, reference compound] |  |  |  |  |  | half-life [7]: 18.4 h
5 | CC(C)[C@@H](C)/C=C/[C@@H](C)[C@H]1CC[C@@H]2[C@]1(C)CC[C@H]1[C@]23C=C[C@]2(C[C@@H](OS(=O)(=O)O)CC[C@]12C)OO3 [Compound 9] | 15.5 (≈ 30.5 µM) | 3.47 | 2.7 | 2.75 | 50 | 
6 | NC(=O)N1c2ccccc2C=Cc2ccccc21 [carbamazepine, reference compound] |  |  |  |  |  | efflux ratio at 2 h, 10 µmol/L ([8]; Caco-2, pH 7.4, Caco-2, read-out: efflux ratio (B2A/A2B)): 0.74; Papp A→B at 2 h, 10 µmol/L ([8]; Caco-2, pH 7.4, apical to basolateral): 37.6 ×10⁻⁶ cm/s; Papp B→A at 2 h, 10 µmol/L ([8]; Caco-2, pH 7.4, basolateral to apical): 27.7 ×10⁻⁶ cm/s
7 | CC(C)[C@@H](C)/C=C/[C@@H](C)[C@H]1CC[C@@H]2[C@]1(C)CC[C@H]1[C@]23C=C[C@]2(C[C@@H](OC(=O)NS(=O)(=O)c4ccccc4)CC[C@]12C)OO3 [Compound 7] | 26.8 (≈ 43.7 µM) | 12 | 5.6 | 5.62 | 47.1 | fraction unbound [9]: 0.0017; fraction unbound [10]: 0.0062; half-life [11]: > 48 h; half-life [12]: > 48 h; metabolic stability (mouse) clint [13]: 63.82 mL/Min/K g; half-life ([13]; female, CD-1, pooled liver microsomes, read-out: metabolic stability (mouse) t1/2 (converted)): 0.9 h; metabolic stability (human) clint [14]: 24.91 mL/Min/K g; half-life ([14]; both sexes, pooled liver microsomes, read-out: metabolic stability (human) t1/2 (converted)): 0.83 h
8 | CC(C)[C@@H](C)C1OC1[C@@H](C)[C@H]1CC[C@@H]2[C@]1(C)CC[C@H]1[C@]23C=C[C@]2(C[C@@H](O)CC[C@]12C)OO3 (stereo partly shown) [Compound 5] | 5.56 (≈ 12.5 µM) | 15.7 | 2.74 | 2.75 | 70.4 | 
9 | CC(C)[C@@H](C)/C=C/[C@@H](C)[C@H]1CC[C@@H]2[C@]1(C)CC[C@H]1[C@@]23OO[C@@]2(C[C@@H](OS(=O)(=O)O)CC[C@]12C)C(OS(=O)(=O)O)C3OS(=O)(=O)O (stereo partly shown) [Compound 10] | 17.8 (≈ 25.4 µM) | 10.7 | 3.11 | 3.09 | 77.9 | 
10 | C=CC(=O)O[C@H]1CC[C@]2(C)[C@H]3CC[C@]4(C)[C@@H]([C@H](C)/C=C/[C@H](C)C(C)C)CC[C@H]4[C@@]34C=C[C@]2(C1)OO4 [Compound 4] | 24.1 (≈ 50 µM) | 47.6 | 31 | 31.6 | 92.5 | 
11 | CC(C)[C@@H](C)C1OC1[C@@H](C)[C@H]1CC[C@@H]2[C@]1(C)CC[C@H]1[C@]23C=C[C@]2(C[C@@H](OS(=O)(=O)O)CC[C@]12C)OO3 (stereo partly shown) [Compound 5a] | 26.2 (≈ 49.9 µM) | 7.37 | 2.24 | 2.29 | 48 | 
12 | CC(C)[C@@H](C)/C=C/[C@@H](C)[C@H]1CC[C@H]2C3=CC=C4C[C@@H](O)CC[C@]4(C)[C@H]3CC[C@]12C [Compound 1, Ergosterol] |  | > 120 | 61 | 61.7 |  | solubility at […] ([1]; distilled water, distilled H2O, UV/vis, read-out: solubility limit): 0.59 µg/mL (≈ 1.49 µM)
